Assay results published in patent publication US20250283048A1, “PLATELET-ACTIVATING FACTOR BLOCKADE INHIBITS TUMOR GROWTH” (The Johns Hopkins University, priority 2022, published 2025).

How the values were obtained:
Eso26 xenograft = experiment: Eso26 EAC cell line xenograft in nude mice; format: in vivo
Protocol: (§1) Organoid cultures and tissues were fixed overnight in 10% formalin at room temperature. Paraffin-embedded organoids and tissues were serially sectioned into 10-μm slices. Paraffin sections were deparaffinized, rehydrated, followed by either staining for hematoxylin and eosin (H&E), or antigen retrieval in sub-boiling 10-mM sodium citrate buffer pH 6.0 for 10 mins. For immunofluorescence (IF), slides were permeabilized in 0.5% TritonX-100 in PBS and blocked in 1% goat serum in PBS for 30 mins at room temperature. After blocking, slides were incubated with anti-Ki67 (1:200, Abcam) overnight in a humidified chamber at 4° C. Sections were washed by PBST (3 times for 5 mins each) and incubated with Alexa Fluor secondary antibodies (1:500) for 1 hr. After washing with PBST, slides were mounted with Fluoroshied with DAPI (Sigma).
Immunohistochemistry was performed using the automated Bond-Max autostainer by Leica for the following antibodies: AE1/AE3 (1:200, Santa Cruz). Images were acquired with a Lecia Inverted Confocal SP8 (Johns Hopkins Medicine Ross Imaging Center). Reagents used here are listed in the Key Resources Table.
(§2) All procedures and experimental protocols involving mice were approved by the Animal Experimental Committee of the Johns Hopkins University School of Medicine. For xenotransplantation of organoids, 2×10^6 organoid cells or ESO26 cells resuspended in cold 50% Matrigel were injected into the axillary of nude mice. For the WEB2086 treatment assay, 5 mg/kg.d of WEB2086 or vehicle control (1.25% DMSO in PBS) was administered by intraperitoneal injection every two days for 3 weeks. Xenograft size was measured twice a week. The xenograft volume (V) was monitored by measuring the length (L) and width (W) with a caliper based on the formula V=1/2×(L×W^2). Mice were sacrificed at the end of the experiment, and xenografts were excised for further analyses.

[1] = system: TP53/CDKN2A^KO GEJ organoids; experiment: Organoid viability assay (WST-1 assay); format: cell-based, human
Protocol: To quantify metabolically active viable cells, organoids were seeded onto 96-well plates and cultured. At indicated time points, 10 μL per well of Cell Proliferation Reagent WST-1 assay kits were added to the 96-well plates and incubated with organoids for 90 minutes. After incubation, only media was transferred to the wells of a new 96-well plate, which was read at an absorbance of 450 nm by a Thermo Scientific Microplate Reader. All experiments were performed in triplicate.

[2] = target: TP53/CDKN2A^KO GEJ organoids; experiment: Ki67 immunofluorescence labeling index; format: cell-based, human; details: WEB2086 at various concentrations vs vehicle control (0.1% DMSO); Day 10
Protocol: as §1

[3] = system: TP53/CDKN2A^KO GEJ organoids xenograft; experiment: Xenotransplantation of TP53/CDKN2A^KO organoid cells in nude mice; format: in vivo; details: 5 mg/kg.d intraperitoneal every two days for 3 weeks; 3-month observation; vs 1.25% DMSO
Protocol: as §2

[4] = system: TP53/CDKN2A^KO GEJ organoids; experiment: Average organoid size by phase-contrast imaging; format: cell-based, human; details: WEB2086 at various concentrations vs vehicle control (0.1% DMSO)
Source text: (FIG. 4A) mRNA levels of PTAFR in TP53/CDKN2A^KO vs. control GEJ organoids (left) and normal GEJ vs. EAC tissues. (FIG. 4B) Knockdown of PTAFR mRNA by siRNAs in TP53/CDKN2A^KO GEJ organoids. (FIG. 4C) Average organoid size and (E) cell viability determined by phase-contrast imaging and WST1 assays, respectively. (FIG. 4D) Ki67 labeling images and (FIG. 4E) quantification obtained on Day 7. *P<0.05 vs. same-day siCtrl. Scale bar=100 μm. (FIG. 4F-FIG. 4H) Average organoid size and cell viability (H) determined by phase-contrast imaging and WST1 assays, respectively. (FIG. 4G and FIG. 4H) Ki67 labeling images and quantification obtained on Day 10. Scale bar=100 μm. *P<0.05 vs Ctrl-DMSO on the same day; +, P<0.05 vs. WEB 10 μM on the same day; #P<0.05 vs. WEB 15 μM on the same day;
GEJ organoids were established as described in FIG. 1A. Briefly, fresh endoscopic GEJ biopsies were preserved in ice-cold conditioned PBS (PBS containing 10 μM ROCK inhibitor Y27632, 2% (vol/vol) penicillin/streptomycin, and 1× Primocin) until further processing within 24 hours. After washing biopsies with conditioned PBS at least 5 times, samples were minced into fragments <1 mm^3 using microdissecting scissors. […]
Following centrifugation at 400 g at 4° C. for 3 minutes, pelleted cell clusters were resuspended in Matrigel. […] Culture medium was changed once every three days until the organoids were ready to passage.

[5] = WEB2086 5 mg/kg.d intraperitoneal every two days for 3 weeks vs vehicle

Ki-67 labeling index [2]: significantly reduced
Structure (SMILES): Cc1nnc2n1-c1sc(CCC(=O)N3CCOCC3)cc1C(c1ccccc1Cl)=NC2 [WEB2086]
EAC xenograft growth (Eso26 xenograft; [5]): significant suppression
EAC xenograft weight (Eso26 xenograft; [5]): significant suppression
Ki67 expression in tumor xenografts (IHC) (Eso26 xenograft; WEB2086 treated Eso26 tumor xenografts): downregulated expression
metabolically active cells (WST-1), onset of decrease ([1]; WEB2086 at various concentrations vs 0.1% DMSO): began to decrease on day 4
inhibitory effect on metabolically active cells (WST-1) ([1]; WEB2086 at various concentrations, day 7 and 10): time- and dose-dependent inhibitory effect
tumor formation [3]: completely prevented tumor formation
organoid size [4]: significantly reduced
